Assay: molar heat capacity at constant pressure
Settings: 101.33 kPa

CC(C)COC(C)(C)C [isobutyl tert-butyl ether]
molar heat capacity at constant pressure [J/K/mol]
Settings | Crystal | Liquid
140.78 K | 140.8 | –
141.71 K | 142 | –
142.63 K | 142.5 | –
143.56 K | 143.4 | –
144.49 K | 143.5 | –
145.41 K | 144.2 | –
146.33 K | 144.7 | –
147.24 K | 145.3 | –
149.06 K | 146.4 | –
149.71 K | – | 210
150 K | 147.3 | –
150.86 K | 147.4 | –
151.76 K | 148.4 | –
151.77 K | – | 210.7
152.66 K | 149 | –
153.55 K | 149.9 | –
153.82 K | – | 211.9
155.87 K | – | 212.5
156.22 K | 153.2 | –
157.08 K | 153.7 | –
157.9 K | – | 213.3
157.95 K | 155.8 | –
159.92 K | – | 214
160 K | 152.6 | –
161.93 K | – | 214.7
162.33 K | 153.6 | 214.8
163.93 K | – | 215.4
165.92 K | – | 216.2
167.9 K | – | 216.8
169.88 K | – | 217.5
170 K | – | 217.7
171.84 K | – | 218.3
173.8 K | – | 219.3
175.75 K | – | 220.1
177.69 K | – | 220.3
179.63 K | – | 221.1
180 K | – | 221.4
181.56 K | – | 221.9
183.49 K | – | 222.7
185.4 K | – | 223.2
187.31 K | – | 224.1
189.21 K | – | 224.7
190 K | – | 225
191.11 K | – | 225.4
193 K | – | 226
194.89 K | – | 226.8
196.77 K | – | 227.4
198.65 K | – | 227.8
200 K | – | 228.5
200.52 K | – | 228.5
201.82 K | – | 229.6
202.53 K | – | 229.1
203.25 K | – | 229.2
203.96 K | – | 229.6
204.67 K | – | 230.4
205.41 K | – | 230.1
206.12 K | – | 230.8
206.84 K | – | 231.4
207.55 K | – | 231.1
208.27 K | – | 231.1
208.98 K | – | 232.1
209.69 K | – | 232
210 K | – | 232.1
210.4 K | – | 232.3
211.12 K | – | 232.6
211.83 K | – | 233
212.55 K | – | 233.1
213.26 K | – | 233.6
213.97 K | – | 233.7
214.69 K | – | 233.6
215.4 K | – | 234.1
216.12 K | – | 234.1
216.87 K | – | 233.8
217.59 K | – | 234.2
218.3 K | – | 234.6
219.02 K | – | 235.9
219.73 K | – | 236
220 K | – | 235.8
220.45 K | – | 236.2
221.17 K | – | 236
221.89 K | – | 237
222.6 K | – | 237
223.33 K | – | 236.7
224.04 K | – | 237.6
224.76 K | – | 237.8
225.48 K | – | 237.8
226.2 K | – | 238
226.92 K | – | 238.6
227.65 K | – | 238.6
228.42 K | – | 239.6
229.14 K | – | 239.3
229.86 K | – | 239.6
230 K | – | 239.7
230.59 K | – | 239.5
231.31 K | – | 240.6
232.04 K | – | 240.4
233.48 K | – | 240.4
234.2 K | – | 240.9
235.65 K | – | 242
236.37 K | – | 242.7
237.1 K | – | 242.3
237.82 K | – | 242.2
238.55 K | – | 243.6
239.27 K | – | 243.4
240 K | – | 243.7
240.05 K | – | 243.3
240.77 K | – | 243.8
241.5 K | – | 243.9
242.22 K | – | 244.6
242.94 K | – | 245.2
243.67 K | – | 244.9
244.39 K | – | 244.9
245.12 K | – | 245.9
246.57 K | – | 247
247.3 K | – | 245.8
248.03 K | – | 247
248.76 K | – | 247.9
249.49 K | – | 247.9
250 K | – | 247.9
250.22 K | – | 248.3
251.77 K | – | 248
252.51 K | – | 248.4
253.24 K | – | 249
253.98 K | – | 249.8
254.72 K | – | 250.5
255.46 K | – | 250.1
256.2 K | – | 251
256.95 K | – | 251.3
257.7 K | – | 250.7
258.45 K | – | 251.2
259.2 K | – | 251.6
259.95 K | – | 252.5
260 K | – | 252.2
260.71 K | – | 252.3
261.46 K | – | 252.8
262.22 K | – | 253.6
263.85 K | – | 253.7
264.62 K | – | 254.4
265.39 K | – | 254.4
266.16 K | – | 255.3
266.93 K | – | 255.3
267.7 K | – | 255.9
268.48 K | – | 256.3
269.26 K | – | 256.4
270 K | – | 256.6
270.82 K | – | 256.8
273.2 K | – | 258
274 K | – | 258.2
274.8 K | – | 258.2
275.61 K | – | 258.9
276.58 K | – | 259.7
277.39 K | – | 259.4
279.03 K | – | 261.1
279.86 K | – | 261.4
280 K | – | 260.9
280.69 K | – | 261
282.66 K | – | 262.3
283.22 K | – | 262.3
284.18 K | – | 262.8
284.95 K | – | 263.7
285.74 K | – | 263.4
287.3 K | – | 264
287.56 K | – | 264.4
288.43 K | – | 264.7
288.86 K | – | 264.2
290 K | – | 265.2
290.42 K | – | 264.9
290.43 K | – | 265.6
291.99 K | – | 265.5
295.17 K | – | 266.9
298.15 K | – | 268.7
298.38 K | – | 268.5
299.98 K | – | 269.1
300 K | – | 269.6
301.59 K | – | 269.8
303.21 K | – | 270.6
304.86 K | – | 271.6
306.49 K | – | 272.2
308.3 K | – | 273.1
309.95 K | – | 274
310 K | – | 274
311.6 K | – | 274.4
313.27 K | – | 275.7
314.92 K | – | 276.5
316.58 K | – | 277.2
318.24 K | – | 278.5
319.91 K | – | 278.9
320 K | – | 278.7
321.57 K | – | 279.3
323.26 K | – | 280.8
324.94 K | – | 281.6
326.61 K | – | 282.4
328.29 K | – | 283.1
329.99 K | – | 283.8
330 K | – | 283.7
331.66 K | – | 284.7
333.33 K | – | 285.5
335.19 K | – | 285.9
336.85 K | – | 286.8
338.51 K | – | 287.9
340 K | – | 289
340.16 K | – | 289
341.81 K | – | 290
343.47 K | – | 291.2
345.13 K | – | 291.6
346.78 K | – | 292.3
348.44 K | – | 293
350 K | – | 294.5
350.08 K | – | 294.6
351.76 K | – | 295.7
353.42 K | – | 296.9

From the NIST ThermoML archive (doi:10.1016/j.jct.2005.02.003)
